{"source": "paper PMC12866823", "about": "“The Pivotal Role of GR‐CAR Pathway in Fetal Programming of Hepatic Cytochrome P450 3A Alteration in Adulthood” (Advanced Science, 2025)", "key": {"[1]": {"test_system": "bone marrow mesenchymal stem cells hepatoid differentiated cell (BHDC)", "experiment": "Treatment of BHDC: mRNA, protein, ChIP-PCR and CoIP readouts", "format": "cell-based, rat", "conditions": "for interaction between GR and P300/CBP (co-immunoprecipitation): 500 x 10^-9 M DEX or 1200 x 10^-9 M CORT; for gene and protein expression of P300/CBP, binding of GR-P300/CBP to CAR promoter, acetylation levels of H3K9 and H3K27: dose-dependent", "description": "Protocols for preparing BMSCs and the hepatoid‐differentiated cells (BHDCs) were based on our prior study.^[ [98] ^] BMSCs were harvested from PW3 male rats and cultured at a density of 4 × 10^5 cells per well in six‐well plates with growth medium (αMEM with 10% fetal bovine serum (FBS), […] streptomycin, and 100 U mL^−1 penicillin).\nAll primers are listed in Table S2 (Supporting Information).\nResults were quantified using Image J Launcher.\nCells were cross‐linked with 1% formaldehyde at room temperature, and glycine (final concentration 125 × 10^−3 M) was added to terminate the reaction.^[ [105] ^] The suspensions were sonicated to obtain 200‐800 bp DNA fragments, and then were incubated with Agarose‐protein A/G beads and divided into multiple portions. Corresponding antibodies (H3K9ac, H3K14ac, H3K27ac, H3K4me2, H3K27me3, GR, and CAR) and IgG were added and shaken overnight at 4 °C for immunoprecipitation, followed by the addition of 200 µg mL^−1 proteinase K at 65 °C overnight. DNA was isolated from each immunoprecipitation and subjected to RT‐qPCR analysis. The Jaspar database was consulted to query gene transcription binding sites.^[ [107] ^] Primers for amplification of multiple regions of the CAR promoter were designed using the UCSC Genome Browser (http://genome.ucsc.edu/) and Primer 3 Input Browser (http://primer3.ut.ee/). The primer sequences are listed in Table S4 (Supporting Information). Data from RT‐qPCR were used to calculate the abundance of proteins enriched in the promoters of each gene using the following formula: IP/input = 100 × 2^Ct input DNA – Ct IP DNA.\nTissue and cell lysates were collected, and protein concentrations were quantified using a BCA protein quantification kit. Protein A agarose gel beads (20 to 40 µL) were washed 2 to 3 times with lysis buffer and centrifuged at 3000 rpm for 5 min each time. Between 500 and 1000 µL of homogenized lysis supernatant from tissues or cells were transferred to a clean EP tube, and 1–10 µL of specific primary antibody was added to incubate overnight at 4 °C. IgG from the same species served as a negative control. Subsequently, 20 µL of A/G agarose gel beads were added, and the mixture was incubated for 3‐4 h at 4 °C. After incubation, the sample was centrifuged at 1000 g for 5 min at 4 °C to collect the immunoprecipitated complexes; the mixture was then washed 3‐4 times with 1 mL ice‐cold IP lysate (without protease inhibitor) by centrifugation at 3000 g for 5 min. Following the final wash, 40 µL of 1 × SDS loading buffer containing mercaptoethanol was added, boiled for 10 min at 100 °C, centrifuged at 1000 g for 5 min at 4 °C, and 15–20 µL of supernatant was used for WB assay."}, "[2]": {"test_system": "rat fetal primary hepatocytes", "experiment": "Treatment of rat fetal primary hepatocytes: mRNA and protein expression", "format": "cell-based", "conditions": "DEX 20-500 x 10^-9 M or CORT 300-1200 x 10^-9 M, concentration-dependent", "description": "(§1) Cells and liver samples were subjected to RNA isolation using a TRIZOL reagent. Process of RNA extraction and cDNA preparation was according to our prior work.^[ [103] ^] qPCR was performed using the Cham Q TM Universal SYBR® qPCR Master Mix on the QuantStudio®5 Real‐Time PCR System (Thermo Scientific, Waltham, MA, USA) for detection. All primers are listed in Table S2 (Supporting Information). Target gene expression was standardized using housekeeping gene and computed using the 2^−ΔΔCt methodology. For the gene expression levels assayed in each tissue of fetal mice, n indicates a litter (with each n ranging from 11‐12).\n(§2) Total protein was extracted from the liver and cells using RIPA lysis buffer, and protein concentration was determined using a bicinchoninic acid (BCA) assay. Nuclear proteins were extracted using the Nuclear Protein Extraction Kit (no. P0028, Beyotime Institute of Biotechnology, Shanghai, China).^[ [104] ^] To verify the purity of extracted cellular fractions, we examined the levels of cytoplasmic localization proteins (ACTB and GAPDH) and nuclear localization protein (H3) in cytoplasmic and nuclear samples, respectively. […] Details of the western blot procedure have been described previously.^[ [105] ^] […] Results were quantified using Image J Launcher."}, "HepG2": {"test_system": "HepG2", "experiment": "Treatment of HepG2 with hydrocortisone", "format": "cell-based, human", "description": "as §1\nas §2, with “Launcher. […]” for “Launcher.”"}, "LS174T": {"test_system": "LS174T", "experiment": "Treatment of LS174T with hydrocortisone", "format": "cell-based, human", "description": "as §1\nas §2, with “Launcher. […]” for “Launcher.”"}, "GR": {"test_system": "GR", "experiment": "Dual-luciferase assay of transcriptional function of GR on CAR", "format": "cell-based, human", "conditions": "with DEX treatment", "description": "The dual‐luciferase reporter plasmid of pTol2‐cmv‐Fluc‐bGH polyA‐EF1α‐Rluc‐polyA was synthesized by Tsingke company and worked as a positive control. Overlapping PCR was performed to generate insert of the target gene promoter base on HepG2 genomic DNA template. Employing Hifi assembly kit, promoter fragments were inserted into SpeI/NtoI site of reporter vector, and coding sequences were inserted into XbaI/XhoI site of pTol2‐EGFP‐polyA plasmid. 48 h after transfection, cells were collected for dual‐luciferase assay according to Promega luciferase kit instructions. The primers for overlap PCR are listed in Table S5 (Supporting Information)."}, "[3]": {"conditions": "DEX 20-500 x 10^-9 M or CORT 300-1200 x 10^-9 M"}, "[4]": {"conditions": "0, 300, 600, 1200 nM, concentration-dependent"}, "[5]": {"conditions": "500 x 10^-9 M DEX with 10 x 10^-6 M RU486 or 100 x 10^-9 M GR siRNA"}}}
{"smiles": "C[C@]12C[C@H](O)[C@H]3[C@@H](CCC4=CC(=O)CC[C@@]43C)[C@@H]1CC[C@@H]2C(=O)CO", "note": "[CORT, corticosterone]", "values": [{"measurement": "interaction between GR and P300/CBP (co-immunoprecipitation)", "setting": "[1]", "value": "significantly enhanced"}, {"measurement": "CYP3A and CYP2B expression, gene and protein levels", "setting": "[1]; DEX 20-500 x 10^-9 M or CORT 300-1200 x 10^-9 M, 24 h, concentration-dependent", "value": "significantly induced CYP3A and CYP2B expression at both the gene and protein levels"}, {"measurement": "gene and protein expression of P300/CBP, binding of GR-P300/CBP to CAR promoter, acetylation levels of H3K9 and H3K27", "setting": "[1]; [3]", "value": "significantly induced"}, {"measurement": "CYP3A and CYP2B expression, gene and protein levels", "setting": "[2]", "value": "significantly induced CYP3A and CYP2B expression at both the gene and protein levels"}]}
{"smiles": "C[C@]12CCC(=O)C=C1CC[C@@H]1[C@@H]2[C@@H](O)C[C@@]2(C)[C@H]1CC[C@]2(O)C(=O)CO", "note": "[hydrocortisone]", "values": [{"measurement": "expression of downstream genes", "setting": "HepG2; [4]", "value": "could significantly induce the expression of downstream genes"}, {"measurement": "related indicators and nuclear translocation of GR and CAR", "setting": "HepG2; 1200 x 10^-9 M", "value": "significantly increased"}, {"measurement": "expression of downstream genes", "setting": "LS174T; [4]", "value": "could significantly induce the expression of downstream genes"}, {"measurement": "related indicators and nuclear translocation of GR and CAR", "setting": "LS174T; 1200 x 10^-9 M", "value": "significantly increased"}]}
{"smiles": "C[C@@H]1C[C@H]2[C@@H]3CCC4=CC(=O)C=C[C@]4(C)[C@@]3(F)[C@@H](O)C[C@]2(C)[C@@]1(O)C(=O)CO", "note": "[DEX, dexamethasone]", "values": [{"measurement": "interaction between GR and P300/CBP (co-immunoprecipitation)", "setting": "[1]", "value": "significantly enhanced"}, {"measurement": "gene and protein expression of P300/CBP, binding of GR-P300/CBP to CAR promoter, acetylation levels of H3K9 and H3K27", "setting": "[1]; [3]", "value": "significantly induced"}]}
{"smiles": "C=C1[C@@H](O)[C@@H]2O[C@]3(CC[C@H](/C=C/[C@@H](C)[C@@H]4CC(C)=C[C@@]5(O[C@H](C[C@@](C)(O)C(=O)O)CC[C@H]5O)O4)O3)CC[C@H]2O[C@@H]1[C@@H](O)C[C@H](C)[C@H]1O[C@@]2(CCCCO2)CC[C@H]1C", "note": "[OA, okadaic acid]", "values": [{"measurement": "effect on DEX-enhanced total and nuclear protein levels of CAR", "setting": "[1]; 10 x 10^-9 M OA with DEX", "value": "reversed"}, {"measurement": "expression of downstream CYP3A and CYP2B", "setting": "[1]; 10 x 10^-9 M OA with or without DEX", "value": "significantly reduced the expression of downstream CYP3A and CYP2B with or without DEX incubation"}]}
{"smiles": "CC#C[C@]1(O)CC[C@H]2[C@@H]3CCC4=CC(=O)CCC4=C3[C@@H](c3ccc(N(C)C)cc3)C[C@@]21C", "note": "[RU486, mifepristone]", "values": [{"measurement": "effect on GR protein nuclear translocation and CYPs expression induced by DEX", "setting": "[1]; 10 x 10^-6 M with 500 x 10^-9 M DEX", "value": "significantly inhibited protein nuclear translocation of GR and expression of CYPs induced by DEX treatment"}, {"measurement": "effect on CAR induction by DEX", "setting": "[1]; [5]", "value": "suppressed"}, {"measurement": "effect on DEX induction of P300/CBP expression, P300/CBP binding to CAR promoter and H3K9/H3K27 acetylation", "setting": "[1]; [5]", "value": "reversed the induction of P300/CBP expression, the binding of P300/CBP to the CAR promoter, and the acetylation levels of H3K9 and H3K27 by DEX"}, {"measurement": "effect on transcriptional activity of GR (on CAR) induced by DEX", "setting": "GR", "value": "blocked transcriptional activity of GR induced by DEX"}]}
